Test system: HBV
Experiment: HBV-DNA antiviral assay using HepG2.117 cells (intracellular HBV DNA by qPCR)
Format: cell-based, HBV genotype D
Conditions: Hepatitis B virus, HepG2.117, 72 h, HBV DNA inhibition, 3 days incubation, read-out: EC50
How it was run: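 HepG2.117 cells (stably integrated genotype D HBV, Tet-off) seeded without doxycycline to induce pgRNA, then treated next day with 9 concentrations (4-fold dilutions, 2% DMSO) for 3 days at 37 °C. Intracellular HBV DNA quantified by qPCR against standard curve, viability by ATP content; inhibition relative to DMSO control, EC50/EC90/CC50 by non-linear regression.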

`Cn1cnc2ccc(-n3c(C(=O)NCc4ccccc4)c4n(c3=O)CCN(C(=O)c3ccc(Br)c(Cl)c3)C4)cc21` [Compound 124, N-benzyl-7-(4-bromo-3-chloro-benzoyl)-2-(3-methylbenzimidazol-5-yl)-3-oxo-6,8-dihydro-5H-imidazo[1,5-a]pyrazine-1-carboxamide] gave an EC50 of 500 to 5000 nM.

Compound `O=C(NCc1ccccc1)c1c2n(c(=O)n1-c1ccc3ocnc3c1)CCN(C(=O)c1ccc(Br)c(Cl)c1)C2` [Compound 126, 2-(1,3-benzoxazol-5-yl)-N-benzyl-7-(4-bromo-3-chloro-benzoyl)-3-oxo-6,8-dihydro-5H-imidazo[1,5-a]pyrazine-1-carboxamide] has an EC50 of 500 to 5000 nM.

Compound `CNc1nc2cc(-n3c(C(=O)NCc4ccccc4)c4n(c3=O)CCN(C(=O)c3ccc(Br)c(Cl)c3)C4)ccc2o1` [Compound 127, N-benzyl-7-(4-bromo-3-chloro-benzoyl)-2-[2-(methylamino)-1,3-benzoxazol-5-yl]-3-oxo-6,8-dihydro-5H-imidazo[1,5-a]pyrazine-1-carboxamide] has an EC50 of 500 to 5000 nM.

In the case of `O=C(NCc1ccccc1)c1c2n(c(=O)n1-c1ccc3c(ccn3CCO)c1)CCN(C(=O)c1ccc(Br)c(Cl)c1)C2` [Compound 128, N-benzyl-7-(4-bromo-3-chloro-benzoyl)-2-[1-(2-hydroxyethyl)indol-5-yl]-3-oxo-6,8-dihydro-5H-imidazo[1,5-a]pyrazine-1-carboxamide], the EC50 is reported as 50 to 500 nM.

Work on `O=C(NCc1ccccc1)c1c2n(c(=O)n1-c1ccc(OC3CC(O)C3)cc1)CCN(C(=O)c1ccc(Br)c(Cl)c1)C2` (centres unmarked) [Compound 129, N-benzyl-7-(4-bromo-3-chloro-benzoyl)-2-[4-(3-hydroxycyclobutoxy)phenyl]-3-oxo-6,8-dihydro-5H-imidazo[1,5-a]pyrazine-1-carboxamide] yielded an EC50 of 50 to 500 nM.

From patent US11845752B2, “Substituted imidazo[1,5-a]pyrazines for the treatment of hepatitis B” (ALIGOS THERAPEUTICS, INC., priority 2020, dated 2023)
